According to paper PMC11392244, “Characterization of a unique catechol-O-methyltransferase as a molecular drug target in parasitic filarial nematodes” (PLOS Neglected Tropical Diseases, 2024):
“And” between values parts separate entries of the source, which are not always exact repeats. Equal values may be shown once. Read-outs that look alike come from different tables or passages of the source.

How the values were obtained:
Gram-positive bacteria = system: Gram-positive bacteria; parameters: method as in PMID 4622052; conditions: in vitro and in vivo; ref [59]; cited from earlier work
D. immitis microfilariae = test: In vitro efficacy against live D. immitis microfilariae (motility, completely immotile %); type: cell-based, Dirofilaria immitis; conditions: for Completely Immotile Microfilariae (%): single experiments
DiMT protein = type: biochemical, Dirofilaria immitis
mice = conditions: ref [59]; cited from earlier work
mammalian cells = conditions: read-out: Cytotoxicity IC50, ref Zhang et al., [30]; cited from earlier work

CO[C@@H]1/C=C/O[C@@]2(C)Oc3c(C)c(O)c4c(c3C2=O)C(=N[C@@H]2CC[C@@H](O)O[C@H]2C)C=C(NC(=O)/C(C)=C\C(=O)[C@@H]2C[C@@H]2[C@H](O)[C@@H](C)[C@@H](O)[C@@H](C)[C@H](OC(C)=O)[C@@H]1C)C4=O [NSC177383, tolypomycin-Y]
antimicrobial activities against Gram-positive bacteria (Gram-positive bacteria): strong antimicrobial activities
Mean completely Immotile (%) (D. immitis microfilariae; 10 µM, 0 h): 0%
Mean completely Immotile (%) (D. immitis microfilariae; 10 µM, 24 h): 7.83%
Mean completely Immotile (%) (D. immitis microfilariae; 10 µM, 48 h): 18.5%
Mean completely Immotile (%) (D. immitis microfilariae; 10 µM, 72 h): 27.33%
Mean completely Immotile (%) (D. immitis microfilariae; 10 µM, 96 h): 38%
Mean completely Immotile (%) (D. immitis microfilariae; 10 µM, 120 h): 56.33%
Mean completely Immotile (%) (D. immitis microfilariae; 25 µM, 0 h): 0%
Mean completely Immotile (%) (D. immitis microfilariae; 25 µM, 24 h): 25.33%
Mean completely Immotile (%) (D. immitis microfilariae; 25 µM, 48 h): 33%
Mean completely Immotile (%) (D. immitis microfilariae; 25 µM, 72 h): 71.33%
Mean completely Immotile (%) (D. immitis microfilariae; 25 µM, 96 h): 91.33%
Mean completely Immotile (%) (D. immitis microfilariae; 40 µM, 0 h): 0%
Mean completely Immotile (%) (D. immitis microfilariae; 40 µM, 24 h): 57.67%
Mean completely Immotile (%) (D. immitis microfilariae; 40 µM, 48 h): 87.67%
Mean completely Immotile (%) (D. immitis microfilariae; 40 µM, 72 h): 96.67%
Mean completely Immotile (%) (D. immitis microfilariae; 40 µM, 96 h): 100%
Mean completely Immotile (%) (D. immitis microfilariae; 40 µM, 120 h): 100%
Mean completely Immotile (%) (D. immitis microfilariae; 50 µM, 0 h): 0%
Mean completely Immotile (%) (D. immitis microfilariae; 50 µM, 24 h): 64.67%
Mean completely Immotile (%) (D. immitis microfilariae; 50 µM, 48 h): 93.67%
Mean completely Immotile (%) (D. immitis microfilariae; 50 µM, 72 h): 100%
Mean completely Immotile (%) (D. immitis microfilariae; 50 µM, 96 h): 100%
Mean completely Immotile (%) (D. immitis microfilariae; 50 µM, 120 h): 100%
Mean completely Immotile (%) (D. immitis microfilariae; 75 µM, 0 h): 0%
Mean completely Immotile (%) (D. immitis microfilariae; 75 µM, 24 h): 95.33%
Mean completely Immotile (%) (D. immitis microfilariae; 75 µM, 48 h): 100%
Mean completely Immotile (%) (D. immitis microfilariae; 75 µM, 72 h): 100%
Mean completely Immotile (%) (D. immitis microfilariae; 75 µM, 96 h): 100%
Mean completely Immotile (%) (D. immitis microfilariae; 75 µM, 120 h): 100%
Mean completely Immotile (%) (D. immitis microfilariae; 100 µM, 0 h): 0%
Mean completely Immotile (%) (D. immitis microfilariae; 100 µM, 24 h): 100%
Mean completely Immotile (%) (D. immitis microfilariae; 100 µM, 48 h): 100%
Mean completely Immotile (%) (D. immitis microfilariae; 100 µM, 72 h): 100%
Mean completely Immotile (%) (D. immitis microfilariae; 100 µM, 96 h): 100%
Mean completely Immotile (%) (D. immitis microfilariae; 100 µM, 120 h): 100%
EC50 (D. immitis microfilariae; 96 h post-treatment, read-out: Anti-parasitic EC50): 11.7 µM and 11.6 µM
Completely Immotile Microfilariae (%) (D. immitis microfilariae; 10 µM, 0 h): 0%
Completely Immotile Microfilariae (%) (D. immitis microfilariae; 10 µM, 24 h): 5% and 8.5% and 10%
Completely Immotile Microfilariae (%) (D. immitis microfilariae; 10 µM, 48 h): 15% and 19.5% and 21%
Completely Immotile Microfilariae (%) (D. immitis microfilariae; 10 µM, 72 h): 25% and 27% and 30%
Completely Immotile Microfilariae (%) (D. immitis microfilariae; 10 µM, 96 h): 35% and 38% and 41%
Completely Immotile Microfilariae (%) (D. immitis microfilariae; 10 µM, 120 h): 50% and 61% and 58%
Completely Immotile Microfilariae (%) (D. immitis microfilariae; 25 µM, 0 h): 0%
Completely Immotile Microfilariae (%) (D. immitis microfilariae; 25 µM, 24 h): 25% and 28% and 23%
Completely Immotile Microfilariae (%) (D. immitis microfilariae; 25 µM, 48 h): 30% and 37% and 32%
Completely Immotile Microfilariae (%) (D. immitis microfilariae; 25 µM, 72 h): 70% and 76% and 68%
Completely Immotile Microfilariae (%) (D. immitis microfilariae; 25 µM, 96 h): 90% and 95% and 89%
Completely Immotile Microfilariae (%) (D. immitis microfilariae; 25 µM, 120 h): 100%
Completely Immotile Microfilariae (%) (D. immitis microfilariae; 40 µM, 0 h): 0%
Completely Immotile Microfilariae (%) (D. immitis microfilariae; 40 µM, 24 h): 50% and 65% and 58%
Completely Immotile Microfilariae (%) (D. immitis microfilariae; 40 µM, 48 h): 85% and 90% and 88%
Completely Immotile Microfilariae (%) (D. immitis microfilariae; 40 µM, 72 h): 95% and 98% and 97%
Completely Immotile Microfilariae (%) (D. immitis microfilariae; 40 µM, 96 h): 100%
Completely Immotile Microfilariae (%) (D. immitis microfilariae; 40 µM, 120 h): 100%
Completely Immotile Microfilariae (%) (D. immitis microfilariae; 50 µM, 0 h): 0%
Completely Immotile Microfilariae (%) (D. immitis microfilariae; 50 µM, 24 h): 60% and 78% and 56%
Completely Immotile Microfilariae (%) (D. immitis microfilariae; 50 µM, 48 h): 90% and 95% and 96%
Completely Immotile Microfilariae (%) (D. immitis microfilariae; 50 µM, 72 h): 100%
Completely Immotile Microfilariae (%) (D. immitis microfilariae; 50 µM, 96 h): 100%
Completely Immotile Microfilariae (%) (D. immitis microfilariae; 50 µM, 120 h): 100%
Completely Immotile Microfilariae (%) (D. immitis microfilariae; 75 µM, 0 h): 0%
Completely Immotile Microfilariae (%) (D. immitis microfilariae; 75 µM, 24 h): 95% and 93% and 98%
Completely Immotile Microfilariae (%) (D. immitis microfilariae; 75 µM, 48 h): 100%
Completely Immotile Microfilariae (%) (D. immitis microfilariae; 75 µM, 72 h): 100%
Completely Immotile Microfilariae (%) (D. immitis microfilariae; 75 µM, 96 h): 100%
Completely Immotile Microfilariae (%) (D. immitis microfilariae; 75 µM, 120 h): 100%
Completely Immotile Microfilariae (%) (D. immitis microfilariae; 100 µM, 0 h): 0%
Completely Immotile Microfilariae (%) (D. immitis microfilariae; 100 µM, 24 h): 100%
Completely Immotile Microfilariae (%) (D. immitis microfilariae; 100 µM, 48 h): 100%
Completely Immotile Microfilariae (%) (D. immitis microfilariae; 100 µM, 72 h): 100%
Completely Immotile Microfilariae (%) (D. immitis microfilariae; 100 µM, 96 h): 100%
Completely Immotile Microfilariae (%) (D. immitis microfilariae; 100 µM, 120 h): 100%
effect on microfilariae (D. immitis microfilariae; up to 120 h of culture): killing effect
Mean Percent Inhibition (DiMT protein; 40 µM): 17.3% and 18.1% and 14.9%
Mean Percent Inhibition, Average (DiMT protein; 40 µM): 16.8%
Mean Percent Inhibition (DiMT protein; 80 µM): 30.5% and 30.7% and 34.4%
Mean Percent Inhibition, Average (DiMT protein; 80 µM): 31.9%
Mean Percent Inhibition (DiMT protein; 120 µM): 45.9% and 41.2% and 40.2%
Mean Percent Inhibition, Average (DiMT protein; 120 µM): 42.4%
Mean Percent Inhibition (DiMT protein; 140 µM): 50.6% and 45.4% and 42.2%
Mean Percent Inhibition, Average (DiMT protein; 140 µM): 46.1%
Mean Percent Inhibition (DiMT protein; 180 µM): 63.6% and 62.4% and 64.2%
Mean Percent Inhibition, Average (DiMT protein; 180 µM): 63.4%
IC50 (DiMT protein; read-out: IC 50 (μM ± SEM)): 140 ± 2.2 µM
toxicity in mice (mice): low toxicity
IC50 (mammalian cells): 85.5 µM
